According to ChEMBL document CHEMBL1201862, “PubChem BioAssay data set” (2004):
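All cell lines were grown in 96-well plates and treated with compound for 48 hours. At the GI50, growth is halved.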 Calls of active or inactive are those of the source. No stated cut-off is given here; in the data, active = GI50 up to about 1.1 µM and inactive = higher.

Key:
Assay in all cases: DTP human tumour cell line panel, 48 h
[1] = tested on: MDA-MB-231
[2] = tested on: NCI-H23
[3] = tested on: ACHN
[4] = tested on: 786-0
[5] = tested on: MOLT-4
[6] = tested on: OVCAR-8
[7] = tested on: SF-295
[8] = tested on: Malme-3M
[9] = tested on: NCI/ADR-RES
[10] = tested on: UACC-62
[11] = tested on: DU-145
[12] = tested on: LOX IMVI
[13] = tested on: HCT-116
[14] = tested on: SNB-75
[15] = tested on: SF-268
[16] = tested on: A498
[17] = tested on: SK-OV-3
[18] = tested on: NCI-H226
[19] = tested on: SF-539
[20] = tested on: OVCAR-5
[21] = tested on: HOP-92
[22] = tested on: SN12C
[23] = tested on: Hs-578T
[24] = tested on: COLO 205
[25] = tested on: UACC-257
[26] = tested on: M14
[27] = tested on: SNB-19
[28] = tested on: U-251
[29] = tested on: MDA-MB-435
[30] = tested on: HT-29
[31] = tested on: NCI-H522
[32] = tested on: HCT-15
[33] = tested on: SK-MEL-28
[34] = tested on: OVCAR-3
[35] = tested on: CAKI-1
[36] = tested on: HL-60
[37] = tested on: SW-620
[38] = tested on: EKVX
[39] = tested on: NCI-H460
[40] = tested on: BT-549
[41] = tested on: TK-10
[42] = tested on: HOP-62
[43] = tested on: T47D
[44] = tested on: HCC 2998
[45] = tested on: K562
[46] = tested on: RPMI-8226
[47] = tested on: OVCAR-4
[48] = tested on: RXF 393
[49] = tested on: MDA-N
[50] = tested on: PC-3
[51] = tested on: A549
[52] = tested on: SK-MEL-2
[53] = tested on: SK-MEL-5
[54] = tested on: IGROV-1
[55] = tested on: KM12
[56] = tested on: MCF7
[57] = tested on: UO-31
[58] = tested on: CCRF-CEM

COc1ccc2nccc(/C=C/c3ccc(N(C)C)cc3)c2c1
GI50 [1]: > 10 µM (inactive)
GI50 [2]: > 10 µM (inactive)
GI50 [3]: > 10 µM (inactive)
GI50 [4]: > 10 µM (inactive)
GI50 [5]: 8.18 µM (inactive)
GI50 [6]: > 10 µM (inactive)
GI50 [7]: > 10 µM (inactive)
GI50 [8]: > 10 µM (inactive)
GI50 [9]: > 10 µM (inactive)
GI50 [10]: > 10 µM (inactive)
GI50 [11]: > 10 µM (inactive)
GI50 [12]: > 10 µM (inactive)
GI50 [13]: 8.59 µM (inactive)
GI50 [14]: 6.73 µM (inactive)
GI50 [15]: > 10 µM (inactive)
GI50 [16]: > 10 µM (inactive)
GI50 [17]: > 10 µM (inactive)
GI50 [18]: > 10 µM (inactive)
GI50 [19]: > 10 µM (inactive)
GI50 [20]: > 10 µM (inactive)
GI50 [21]: > 10 µM (inactive)
GI50 [22]: > 10 µM (inactive)
GI50 [23]: > 10 µM (inactive)
GI50 [24]: > 10 µM (inactive)
GI50 [25]: > 10 µM (inactive)
GI50 [26]: > 10 µM (inactive)
GI50 [27]: > 10 µM (inactive)
GI50 [28]: > 10 µM (inactive)
GI50 [29]: 2.31 µM (inactive)
GI50 [30]: > 10 µM (inactive)
GI50 [31]: > 10 µM (inactive)
GI50 [32]: > 10 µM
GI50 [33]: > 10 µM (inactive)
GI50 [34]: > 10 µM (inactive)
GI50 [35]: > 10 µM (inactive)
GI50 [36]: > 10 µM (inactive)
GI50 [37]: > 10 µM (inactive)
GI50 [38]: > 10 µM (inactive)
GI50 [39]: > 10 µM (inactive)
GI50 [40]: > 10 µM (inactive)
GI50 [41]: > 10 µM (inactive)
GI50 [42]: > 10 µM (inactive)
GI50 [43]: > 10 µM (inactive)
GI50 [44]: > 10 µM (inactive)
GI50 [45]: 6.41 µM (inactive)
GI50 [46]: > 10 µM (inactive)
GI50 [47]: > 10 µM (inactive)
GI50 [48]: > 10 µM (inactive)
GI50 [49]: 3.02 µM (inactive)
GI50 [50]: > 10 µM (inactive)
GI50 [51]: > 10 µM (inactive)
GI50 [52]: > 10 µM (inactive)
GI50 [53]: > 10 µM (inactive)
GI50 [54]: > 10 µM (inactive)
GI50 [55]: > 10 µM (inactive)
GI50 [56]: > 10 µM (inactive)
GI50 [57]: > 10 µM (inactive)
GI50 [58]: 5.66 µM (inactive)
